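In this assay, cells in 96-well plates receive the compound at five concentrations for 48 hours. Endpoints are linearly interpolated between the surrounding concentrations. Abbreviation: GI50, concentration required for 50% inhibition of growth. At the TGI there is no net growth.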
Tests used:
Test in all cases: NCI tumour cell line growth inhibition, 48 h
A498 renal = test system: A498 renal
ACHN renal = test system: ACHN renal
BT-549 breast = test system: BT-549 breast
COLO 205 colon = test system: COLO 205 colon
DU-145 prostate = test system: DU-145 prostate
HCT-15 colon = test system: HCT-15 colon
HT29 colon = test system: HT29 colon
MDA-MB-231 breast = test system: MDA-MB-231 breast
MDA-MB-435 = test system: MDA-MB-435
NCI-H23 lung = test system: NCI-H23 lung
NCI/ADR-RES ovarian = test system: NCI/ADR-RES ovarian
OVCAR-4 ovarian = test system: OVCAR-4 ovarian
OVCAR-5 ovarian = test system: OVCAR-5 ovarian
SF-539 CNS = test system: SF-539 CNS
SK-MEL-28 melanoma = test system: SK-MEL-28 melanoma
SK-MEL-5 melanoma = test system: SK-MEL-5 melanoma
SK-OV-3 ovarian = test system: SK-OV-3 ovarian
SNB-75 CNS = test system: SNB-75 CNS
TK-10 renal = test system: TK-10 renal
UACC-62 melanoma = test system: UACC-62 melanoma
786-0 renal = test system: 786-0 renal
A549 NSCLC = test system: A549 NSCLC
CAKI-1 renal = test system: CAKI-1 renal
EKVX NSCLC = test system: EKVX NSCLC
HCC-2998 colon = test system: HCC-2998 colon
HCT-116 colon = test system: HCT-116 colon
HOP-62 NSCLC = test system: HOP-62 NSCLC
HS 578T breast = test system: HS 578T breast
IGROV1 ovarian = test system: IGROV1 ovarian
K-562 leukemia = test system: K-562 leukemia
KM12 colon = test system: KM12 colon
LOX IMVI melanoma = test system: LOX IMVI melanoma
M14 melanoma = test system: M14 melanoma
MALME-3M melanoma = test system: MALME-3M melanoma
MCF7 breast = test system: MCF7 breast
MOLT-4 leukemia = test system: MOLT-4 leukemia
NCI-H226 lung = test system: NCI-H226 lung
NCI-H460 lung = test system: NCI-H460 lung
NCI-H522 lung = test system: NCI-H522 lung
OVCAR-3 ovarian = test system: OVCAR-3 ovarian
OVCAR-8 ovarian = test system: OVCAR-8 ovarian
PC-3 prostate = test system: PC-3 prostate
SF-268 CNS = test system: SF-268 CNS
SF-295 CNS = test system: SF-295 CNS
SK-MEL-2 melanoma = test system: SK-MEL-2 melanoma
SN12C renal = test system: SN12C renal
SNB-19 CNS = test system: SNB-19 CNS
SW-620 colon = test system: SW-620 colon
T-47D breast = test system: T-47D breast
U251 CNS = test system: U251 CNS
UACC-257 melanoma = test system: UACC-257 melanoma
UO-31 renal = test system: UO-31 renal
CCRF-CEM leukemia = test system: CCRF-CEM leukemia
HOP-92 NSCLC = test system: HOP-92 NSCLC
RPMI-8226 leukemia = test system: RPMI-8226 leukemia
RXF 393 renal = test system: RXF 393 renal

## CCc1cn2c(/C=N/N=C(N)N)c(-c3cc(C)c(Cl)cc3Cl)nc2s1
A498 renal
  TGI: 3.75 µM
ACHN renal
  TGI: 3.04 µM
BT-549 breast
  TGI: 3.2 µM
COLO 205 colon
  TGI: 3.61 µM
DU-145 prostate
  TGI: 3 µM
HCT-15 colon
  TGI: 2.97 µM
HT29 colon
  TGI: 2.45 µM
MDA-MB-231 breast
  TGI: 2.12 µM
MDA-MB-435
  TGI: 2.76 µM
NCI-H23 lung
  TGI: 3.16 µM
NCI/ADR-RES ovarian
  TGI: 24.8 µM
OVCAR-4 ovarian
  TGI: 2.78 µM
OVCAR-5 ovarian
  TGI: 2.96 µM
SF-539 CNS
  TGI: 3.11 µM
SK-MEL-28 melanoma
  TGI: 2.82 µM
SK-MEL-5 melanoma
  TGI: 2.99 µM
SK-OV-3 ovarian
  TGI: 3.56 µM
SNB-75 CNS
  TGI: 2.88 µM
TK-10 renal
  TGI: 3.46 µM
UACC-62 melanoma
  TGI: 2.72 µM

## CNC(=O)[C@H](Cc1c[nH]c2ccccc12)NC(=O)[C@@H](CC(=O)NO)CC(C)C
786-0 renal
  GI50: > 25 µM
  TGI: > 25 µM
A498 renal
  GI50: > 25 µM
  TGI: > 25 µM
A549 NSCLC
  GI50: > 25 µM
  TGI: > 25 µM
ACHN renal
  GI50: > 25 µM
  TGI: > 25 µM
BT-549 breast
  GI50: > 25 µM
  TGI: > 25 µM
CAKI-1 renal
  GI50: > 25 µM
  TGI: > 25 µM
COLO 205 colon
  GI50: > 25 µM
  TGI: > 25 µM
DU-145 prostate
  GI50: > 25 µM
  TGI: > 25 µM
EKVX NSCLC
  GI50: > 25 µM
  TGI: > 25 µM
HCC-2998 colon
  GI50: > 25 µM
  TGI: > 25 µM
HCT-116 colon
  GI50: > 25 µM
  TGI: > 25 µM
HCT-15 colon
  GI50: > 25 µM
  TGI: > 25 µM
HOP-62 NSCLC
  GI50: > 25 µM
  TGI: > 25 µM
HS 578T breast
  GI50: > 25 µM
  TGI: > 25 µM
HT29 colon
  GI50: > 25 µM
  TGI: > 25 µM
IGROV1 ovarian
  GI50: > 25 µM
  TGI: > 25 µM
K-562 leukemia
  GI50: 21.6 µM
  TGI: > 25 µM
KM12 colon
  GI50: > 25 µM
  TGI: > 25 µM
LOX IMVI melanoma
  GI50: > 25 µM
  TGI: > 25 µM
M14 melanoma
  GI50: > 25 µM
  TGI: > 25 µM
MALME-3M melanoma
  GI50: > 25 µM
  TGI: > 25 µM
MCF7 breast
  GI50: > 25 µM
  TGI: > 25 µM
MDA-MB-231 breast
  GI50: > 25 µM
  TGI: > 25 µM
MDA-MB-435
  GI50: > 25 µM
  TGI: > 25 µM
MOLT-4 leukemia
  GI50: > 25 µM
  TGI: > 25 µM
NCI-H226 lung
  GI50: > 25 µM
  TGI: > 25 µM
NCI-H23 lung
  GI50: > 25 µM
  TGI: > 25 µM
NCI-H460 lung
  GI50: > 25 µM
  TGI: > 25 µM
NCI-H522 lung
  GI50: > 25 µM
  TGI: > 25 µM
NCI/ADR-RES ovarian
  GI50: > 25 µM
  TGI: > 25 µM
OVCAR-3 ovarian
  GI50: > 25 µM
  TGI: > 25 µM
OVCAR-4 ovarian
  GI50: > 25 µM
  TGI: > 25 µM
OVCAR-5 ovarian
  GI50: > 25 µM
  TGI: > 25 µM
OVCAR-8 ovarian
  GI50: > 25 µM
  TGI: > 25 µM
PC-3 prostate
  GI50: > 25 µM
  TGI: > 25 µM
SF-268 CNS
  GI50: > 25 µM
  TGI: > 25 µM
SF-295 CNS
  GI50: > 25 µM
  TGI: > 25 µM
SF-539 CNS
  GI50: > 25 µM
  TGI: > 25 µM
SK-MEL-2 melanoma
  GI50: > 25 µM
  TGI: > 25 µM
SK-MEL-28 melanoma
  GI50: > 25 µM
  TGI: > 25 µM
SK-MEL-5 melanoma
  GI50: > 25 µM
  TGI: > 25 µM
SK-OV-3 ovarian
  GI50: > 25 µM
  TGI: > 25 µM
SN12C renal
  GI50: > 25 µM
  TGI: > 25 µM
SNB-19 CNS
  GI50: > 25 µM
  TGI: > 25 µM
SNB-75 CNS
  GI50: > 25 µM
  TGI: > 25 µM
SW-620 colon
  GI50: > 25 µM
  TGI: > 25 µM
T-47D breast
  GI50: > 25 µM
  TGI: > 25 µM
TK-10 renal
  GI50: > 25 µM
  TGI: > 25 µM
U251 CNS
  GI50: > 25 µM
  TGI: > 25 µM
UACC-257 melanoma
  GI50: > 25 µM
  TGI: > 25 µM
UACC-62 melanoma
  GI50: > 25 µM
  TGI: > 25 µM
UO-31 renal
  GI50: > 25 µM
  TGI: > 25 µM

## O=C1c2c(c3c4cc(F)ccc4oc3c3[nH]c4ccccc4c23)C(=O)N1O
A498 renal
  GI50: 1.23 µM
  TGI: 5.2 µM
A549 NSCLC
  GI50: 27.1 µM
  TGI: > 100 µM
ACHN renal
  GI50: 0.398 µM
  TGI: 1.73 µM
CAKI-1 renal
  GI50: 2.09 µM
  TGI: 9.35 µM
CCRF-CEM leukemia
  GI50: 0.239 µM
  TGI: > 100 µM
COLO 205 colon
  GI50: 4.15 µM
  TGI: > 100 µM
DU-145 prostate
  GI50: 2.15 µM
  TGI: > 100 µM
EKVX NSCLC
  GI50: 6.85 µM
  TGI: 65.8 µM
HCC-2998 colon
  GI50: 2.53 µM
  TGI: > 100 µM
HCT-15 colon
  GI50: 1.81 µM
  TGI: > 100 µM
HOP-62 NSCLC
  GI50: 1.33 µM
  TGI: 17.3 µM
HOP-92 NSCLC
  GI50: 1.44 µM
  TGI: 5.15 µM
HS 578T breast
  GI50: 2.53 µM
  TGI: 9.59 µM
HT29 colon
  GI50: 3.06 µM
  TGI: > 100 µM
IGROV1 ovarian
  GI50: 0.46 µM
  TGI: 11.1 µM
K-562 leukemia
  GI50: 2.09 µM
  TGI: > 100 µM
KM12 colon
  GI50: 3.33 µM
  TGI: > 100 µM
LOX IMVI melanoma
  GI50: 0.5 µM
  TGI: 2.15 µM
MALME-3M melanoma
  GI50: 1.37 µM
  TGI: 6.46 µM
MCF7 breast
  GI50: 0.596 µM
  TGI: > 100 µM
MDA-MB-231 breast
  GI50: 2.68 µM
  TGI: 21.6 µM
MDA-MB-435
  GI50: 3.02 µM
  TGI: > 100 µM
NCI-H226 lung
  GI50: 3.85 µM
  TGI: 73.8 µM
NCI-H23 lung
  GI50: 1.65 µM
  TGI: 8.45 µM
NCI-H460 lung
  GI50: 0.565 µM
  TGI: 10.6 µM
NCI-H522 lung
  GI50: 0.53 µM
  TGI: 5.41 µM
NCI/ADR-RES ovarian
  GI50: 2.9 µM
  TGI: > 100 µM
OVCAR-3 ovarian
  GI50: 2.53 µM
  TGI: 7.96 µM
OVCAR-4 ovarian
  GI50: 4.82 µM
  TGI: > 100 µM
OVCAR-5 ovarian
  GI50: 38.2 µM
  TGI: > 100 µM
OVCAR-8 ovarian
  GI50: 1.82 µM
  TGI: > 100 µM
PC-3 prostate
  GI50: 1.35 µM
  TGI: > 100 µM
RPMI-8226 leukemia
  GI50: 1.22 µM
  TGI: 7.31 µM
RXF 393 renal
  GI50: 1.92 µM
  TGI: 6.85 µM
SF-268 CNS
  GI50: 1.2 µM
  TGI: 25.4 µM
SF-295 CNS
  GI50: 2.33 µM
  TGI: 9 µM
SF-539 CNS
  GI50: 1.6 µM
  TGI: 9.09 µM
SK-MEL-2 melanoma
  GI50: 3.06 µM
  TGI: 12.6 µM
SK-MEL-28 melanoma
  GI50: 2.89 µM
  TGI: > 100 µM
SK-MEL-5 melanoma
  GI50: 1.23 µM
  TGI: 2.6 µM
SK-OV-3 ovarian
  GI50: 2.48 µM
  TGI: 19.6 µM
SNB-19 CNS
  GI50: 1.79 µM
  TGI: 24.9 µM
SNB-75 CNS
  GI50: 0.0769 µM
  TGI: 4.55 µM
SW-620 colon
  GI50: 1.24 µM
  TGI: > 100 µM
T-47D breast
  GI50: 1.59 µM
  TGI: > 100 µM
TK-10 renal
  GI50: 12 µM
  TGI: 53.4 µM
U251 CNS
  GI50: 0.904 µM
  TGI: 13.4 µM
UACC-257 melanoma
  GI50: 2.31 µM
  TGI: 6.68 µM
UACC-62 melanoma
  GI50: 1.48 µM
  TGI: 3.41 µM

Source: PubChem BioAssay (NCI)
